Tests used:
[1] = in vivo; cited from earlier work
CFTR = assay: Ocular surface potential difference (OSPD), forskolin / CFTRinh-172 responses; format: in vivo, mouse
Description: (§1) Using pharmacological activators and inhibitors, OSPD allows studying activities of various ion channels/transporters in the ocular surface.^12 In these studies, baseline OSPD is established using a high Cl^− solution that mimics the tear film. OSPD changes induced by amiloride (ENaC inhibitor) indicates Na^+ transport via ENaC. Similarly, OSPD changes induced by forskolin (cAMP agonist) and CFTRinh-172 (CFTR inhibitor) indicates Cl^− secretion via cAMP-activated Cl^− channels and particularly CFTR. Lastly, OSPD changes induced by Ca^2+ agonist ATP indicates Cl^− secretion mediated by CaCCs.
Sequential perfusion of the ocular surface with solutions containing amiloride (ENaC inhibitor), forskolin (cAMP agonist), CFTRinh-172 (CFTR inhibitor), and ATP (Ca^2+ agonist) thus allows determining activities of ENaC, CFTR, and CaCC ion channels, respectively (FIG. 4A).
The compositions of perfusion solutions follow the solutions used in the standardized human nasal and ocular potential difference protocol.^12,13 Solutions #1-3 (high Cl^−, amiloride, and low Cl^−, respectively) were made in 1-liter batches, pH balanced to 7.4, and filtered in a sterile environment prior to refrigeration and used within 3 months. Solution #1 (high Cl^−) contained 1 L Ringer's injection (containing 147 mM NaCl, 2 mM CaCl2), 4 mM KCl, 2.4 mM K2HPO4, 0.4 mM KH2PO4, and 1.2 mM MgCl2. 100 μM amiloride was added to Solution #1 to create Solution #2 (amiloride). Solution #3 (low Cl^−) was identical to Solution #1, except NaCl was replaced with sodium gluconate. Cinacalcet (CaSR agonist) and NPS-2143 (CaSR antagonist) were purchased from Tocris Bioscience (Minneapolis, MN, USA). All other chemicals were purchased from Sigma-Aldrich (St. Louis, MO, USA).
Ocular surface potential difference (OSPD) and tear fluid volume measurements were performed in mice with topically applied cinacalcet (CaSR activator) and NPS-2143 (CaSR inhibitor). Mice were anesthetized with isoflurane and body temperature was maintained at 37° C. via a heating pad. As described previously,^12,14,15 open-circuit transepithelial potential differences were measured in response to serial perfusions of different isoosmolar (310 mOsm/kg H2O) solutions over the ocular surface at 5-10 ml/min. The measuring electrode was in contact with the perfusion catheter which was carefully positioned using a three-axis micromanipulator directly above the mouse ocular surface and the reference electrode was grounded via a 23-gauge butterfly needle agar bridge inserted subcutaneously in the back. Measuring and reference electrodes consisted of Ag/AgCl with 3 M KCl agar bridges, and both electrodes were connected to an ISO-Z headstage, BMA-200 high-impedance amplifier/voltmeter, and PowerLab analog-to-digital converter (ADInstruments; Colorado Springs, CO, USA) connected to a computer (FIG. 1). Each solution was perfused onto the ocular surface using a gravity perfusion system (ALA Scientific; Farmingdale, NY, USA) for 1-3 minutes until a stable OSPD reading was obtained.

[2] = Tear fluid volume by endodontic absorbent paper point tear test (EAPPTT); format: in vivo, BALB/c mice; conditions: for EAPPTT wetting length: 0.001% single 10 μL dose, baseline 2.3±0.2 mm
Procedure: […] All mice were kept at ambient conditions (approximately 50% humidity and 21° C.) and provided unrestricted access to food and water.

CaCC = assay: Ocular surface potential difference (OSPD), ATP-induced hyperpolarization; format: in vivo, mouse
Description: as §1, with “CaCCs. […]” for “CaCCs.”
(§2) Ocular surface potential difference (OSPD) and tear fluid volume measurements were performed in mice with topically applied cinacalcet (CaSR activator) and NPS-2143 (CaSR inhibitor). […] As described previously,^12,14,15 open-circuit transepithelial potential differences were measured in response to serial perfusions of different isoosmolar (310 mOsm/kg H2O) solutions over the ocular surface at 5-10 ml/min. […] Each solution was perfused onto the ocular surface using a gravity perfusion system (ALA Scientific; Farmingdale, NY, USA) for 1-3 minutes until a stable OSPD reading was obtained.

mouse ocular surface = assay: Baseline ocular surface potential difference (OSPD); format: in vivo; conditions: topically administered, mice
Description: as §1, with “CaCCs. […]” for “CaCCs.”
as §2

ENaC = assay: Ocular surface potential difference (OSPD), amiloride-induced depolarization; format: in vivo, mouse; conditions: topical, 100 μM amiloride, 0-30 μM cinacalcet in all solutions
Description: as §1, with “CaCCs. […]” for “CaCCs.”
as §2

For `O=c1ccn([C@@H]2O[C@H](COP(=O)(O)OP(=O)(O)OP(=O)(O)OP(=O)(O)OC[C@H]3O[C@@H](n4ccc(=O)[nH]c4=O)[C@H](O)[C@@H]3O)[C@@H](O)[C@H]2O)c(=O)[nH]1` [diquafosol], the “outcome of clinical trials for DED” value [1] is listed as “did not meet the primary endpoints”.
For `CC(C)(Cc1ccc2ccccc2c1)NC[C@@H](O)COc1cccc(Cl)c1C#N` [NPS-2143, 2-chloro-6-[(2R)-3-([1,1-dimethyl-2-(2-naphthalenyl)ethyl]amino)-2-hydroxypropoxy]benzonitrile], the “reversal of response by CFTR inhibitor CFTRinh-172” value (CFTR; 30 μM, 10 μM CFTRinh-172) was “partially reversed”, the “hyperpolarization relative to subsequently applied maximal forskolin-induced hyperpolarization” value (CFTR; 30 μM, 10 μM forskolin) was 70% and the “hyperpolarization (OSPD change)” value (CFTR; perfusion of ocular surface with 30 μM) was −13 mV. For the same compound, the “increased tear fluid volume” value ([2]; 0.001% or 30 μM, single 10 μL dose, 15 minutes after treatment) was 60%, the EAPPTT wetting length ([2]; 15 minutes after administration, mean±SEM) was 3.6±0.2 mm and the EAPPTT wetting length ([2]; 8 hours after administration) was 3.6±0.2 mm. The “reversibility of effect on tear volume” value ([2]; 24 h after treatment) was “return of tear volume to near baseline values” and the “increase of tear fluid volume” value ([2]; single dose topical 0.001% or 30 μM, for at least eight hours) was over 60%.
With `C[C@@H](NCCCc1cccc(C(F)(F)F)c1)c1cccc2ccccc12` [cinacalcet] the “inhibition of ATP response” value (CaCC; 30 μM cinacalcet, 100 μM ATP, without prior forskolin and CFTRinh-172, FIG. 5) was about 50%, the “lower ATP-induced hyperpolarization (CaCC activity)” value (CaCC; 100 μM ATP added after forskolin and CFTRinh-172, FIG. 4F) was 90% and the “lower CFTRinh-172 response (CFTR activity)” value (CFTR; at 30 μM, 10 μM CFTRinh-172, FIG. 4E) was “up to 90%”. The “lower forskolin response (CFTR activity)” value (CFTR; at 30 μM, 10 μM forskolin, FIG. 4D) was “up to 90%”, the “inhibition of forskolin-induced Cl− secretion and CFTR activity” value (CFTR; at 30 μM, concentration-dependent, topical, mice) was “up to 90%” and the “effect on baseline OSPD” value (mouse ocular surface) was “no effect”. The “effect on ENaC activity / Na+ absorption mediated by ENaC (amiloride-induced depolarization)” value (ENaC) was “no effect”.

Reference: patent US20240408005A1, “USE OF CALCIUM SENSING RECEPTOR ANTAGONISTS FOR TREATING OCULAR DISORDERS” (The Regents of the University of California, priority 2023, published 2024)
